# Test results published in patent publication EP4722207A1, “OXOISOINDOLINYL-SUBSTITUTED TETRAHYDROPYRIMIDINEDIONE DERIVATIVE AND USE THEREOF” (Gluetacs Therapeutics (Shanghai) Co., Ltd., priority 2023, dated 2024).
# Assays:
# H2228 = test: Cell viability assay (CellTiter-Meiluncell Luminescent), tumor cell proliferation, H2228; details: Homo sapiens, NCI-H2228, 96 h; for inhibition at 0.01 µM: read-out: Inhibition Rate at 10 nM (%); for inhibition at 0.5 µM: read-out: Inhibition Rate at 500 nM (%)
# H292 = test: Cell viability assay (CellTiter-Meiluncell Luminescent), tumor cell proliferation, H292; details: Homo sapiens, NCI-H292, 96 h; for inhibition at 0.01 µM: read-out: Inhibition Rate at 10 nM (%); for inhibition at 0.5 µM: read-out: Inhibition Rate at 500 nM (%)
# [1] = biological target: T1, human Cereblon WT GST-tagged protein (Homo sapiens, UniProt Q96SW2); test: CRBN-binding affinity, CEREBLON BINDING kit (HTRF); details: for inhibition at 0.5 µM: read-out: Inhibition Rate at 0.5 µM (%); for inhibition at 2 µM: read-out: Inhibition Rate at 2 µM (%)
# T1 construct: purchased CISBIO 64BDCRBNPEH
# T1 sequence (Q96SW2 whole entry): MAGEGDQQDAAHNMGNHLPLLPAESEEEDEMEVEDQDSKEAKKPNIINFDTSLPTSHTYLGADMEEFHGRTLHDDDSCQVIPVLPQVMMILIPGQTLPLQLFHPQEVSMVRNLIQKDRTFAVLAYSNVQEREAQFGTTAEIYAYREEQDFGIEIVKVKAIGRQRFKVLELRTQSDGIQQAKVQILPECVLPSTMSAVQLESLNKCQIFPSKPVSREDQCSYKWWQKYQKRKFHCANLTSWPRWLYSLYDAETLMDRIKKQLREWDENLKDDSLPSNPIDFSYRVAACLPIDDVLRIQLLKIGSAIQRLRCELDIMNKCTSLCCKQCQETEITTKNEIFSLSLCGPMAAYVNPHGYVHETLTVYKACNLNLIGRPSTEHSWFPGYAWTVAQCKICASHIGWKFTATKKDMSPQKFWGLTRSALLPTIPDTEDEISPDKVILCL
# From the text: The CEREBLON BINDING kits (specification: 10,000 tests; product number: Catalog # 64BDCRBNPEH; CISBIO company) was used to determine the CRBN binding ability of the compounds to be tested through a HTRF method (homogeneous time-resolved fluorescence). The specific methods are as follows: • 1. […] Specifically, diluent #9 (1X) solution was used as the diluent, and multiple concentration gradients were set. […] Into the 96-well plate, the diluted test compounds and corresponding detection reagents were added, resulting in final test compound concentrations of 2 µM and 0.5 µM, respectively. […] Then, 2.5 µL of human Cereblon WT GST-tagged protein solution was added to each well. Finally, 5 µL of the thoroughly mixed Thalidomide-Re reagent and GST Eu antibody working solution were added to each of the aforementioned wells. […] The blank control wells were sequentially added with 2.5 µL of diluent #9 (1X) solution, 2.5 µL of binding buffer, and 5 µL of thoroughly mixed Thalidomide-Re reagent and GST Eu antibody working solution. • 4. […] OD 620 nm control is the absorbance value of the blank control well at an emission wavelength of 620 nm. […] OD 620 nm Std0 is the absorbance value of the solvent control well at an emission wavelength of 620 nm.
# MV-4-11 = test: Cell viability assay (CellTiter-Meiluncell Luminescent), tumor cell proliferation, MV-4-11; details: Homo sapiens, MV4-11, 96 h; for inhibition at 0.01 µM: read-out: Inhibition Rate at 10 nM (%); for inhibition at 0.5 µM: read-out: Inhibition Rate at 500 nM (%)
# MDA-MB-231 = test: Cell viability assay (CellTiter-Meiluncell Luminescent), tumor cell proliferation, MDA-MB-231; details: Homo sapiens, MDA-MB-231, 96 h; for inhibition at 0.01 µM: read-out: Inhibition Rate at 10 nM (%); for inhibition at 0.5 µM: read-out: Inhibition Rate at 500 nM (%)
# IKZF3 = biological target: T2, IKZF3 (Homo sapiens, UniProt Q96SW2+Q9UKT9); test: Western-blot assay, substrate protein degradation in hPBMCs: IKZF3; type: cell-based; details: 24 hours of compound treatment, 50 nM and 500 nM
# T2 construct: effects of the compounds of the present disclosure on the expression of target proteins in cells; endogenous in cells; host or cells: human PBMCs (hPBMCs)
# T2 sequence (Q9UKT9 whole entry): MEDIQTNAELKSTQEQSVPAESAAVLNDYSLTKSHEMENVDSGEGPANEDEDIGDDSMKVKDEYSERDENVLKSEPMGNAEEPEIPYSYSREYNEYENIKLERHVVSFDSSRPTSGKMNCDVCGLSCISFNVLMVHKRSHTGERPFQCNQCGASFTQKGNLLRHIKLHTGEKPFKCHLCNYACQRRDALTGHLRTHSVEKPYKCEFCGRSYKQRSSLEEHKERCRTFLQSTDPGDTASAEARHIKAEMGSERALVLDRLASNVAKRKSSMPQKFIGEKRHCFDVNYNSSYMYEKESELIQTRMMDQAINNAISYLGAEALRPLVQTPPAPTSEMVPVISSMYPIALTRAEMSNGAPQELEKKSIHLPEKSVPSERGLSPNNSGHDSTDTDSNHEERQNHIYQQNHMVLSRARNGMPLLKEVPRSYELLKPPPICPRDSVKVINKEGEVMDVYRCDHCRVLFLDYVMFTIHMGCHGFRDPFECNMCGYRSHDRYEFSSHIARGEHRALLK
# T2 sequence (Q96SW2 whole entry): as the sequence (Q96SW2 whole entry) above
# T2 sequence (Q16531 whole entry partner): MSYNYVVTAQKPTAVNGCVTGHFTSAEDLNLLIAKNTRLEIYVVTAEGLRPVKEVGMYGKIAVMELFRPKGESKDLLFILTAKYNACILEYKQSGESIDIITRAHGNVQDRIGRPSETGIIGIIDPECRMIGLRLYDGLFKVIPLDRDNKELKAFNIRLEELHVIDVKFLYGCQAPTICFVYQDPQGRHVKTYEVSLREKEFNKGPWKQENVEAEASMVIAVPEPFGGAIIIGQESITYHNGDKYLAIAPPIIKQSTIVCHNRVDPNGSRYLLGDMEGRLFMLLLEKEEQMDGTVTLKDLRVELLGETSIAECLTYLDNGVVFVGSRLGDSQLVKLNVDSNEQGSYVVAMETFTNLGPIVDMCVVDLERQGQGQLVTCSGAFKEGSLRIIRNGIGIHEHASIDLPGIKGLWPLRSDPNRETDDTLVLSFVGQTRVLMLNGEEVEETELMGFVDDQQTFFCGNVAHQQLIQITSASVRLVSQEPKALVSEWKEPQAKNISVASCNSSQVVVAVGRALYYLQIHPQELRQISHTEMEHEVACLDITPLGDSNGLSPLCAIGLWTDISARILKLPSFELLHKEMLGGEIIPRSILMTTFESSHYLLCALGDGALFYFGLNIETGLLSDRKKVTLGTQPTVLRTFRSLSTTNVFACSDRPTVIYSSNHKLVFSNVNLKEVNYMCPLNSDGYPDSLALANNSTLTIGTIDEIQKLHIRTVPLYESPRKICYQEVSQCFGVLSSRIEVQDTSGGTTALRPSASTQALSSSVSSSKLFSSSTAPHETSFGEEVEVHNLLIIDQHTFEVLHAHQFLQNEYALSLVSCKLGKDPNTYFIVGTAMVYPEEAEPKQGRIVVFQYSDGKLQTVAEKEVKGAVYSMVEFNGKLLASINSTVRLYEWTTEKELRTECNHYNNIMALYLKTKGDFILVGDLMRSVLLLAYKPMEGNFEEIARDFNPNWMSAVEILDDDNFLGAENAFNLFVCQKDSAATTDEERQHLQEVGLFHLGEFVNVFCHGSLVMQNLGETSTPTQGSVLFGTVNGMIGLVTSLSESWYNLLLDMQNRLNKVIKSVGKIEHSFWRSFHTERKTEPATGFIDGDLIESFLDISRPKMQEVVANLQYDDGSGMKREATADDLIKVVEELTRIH
# IKZF1 = biological target: T3, IKZF1 (Homo sapiens, UniProt Q13422+Q96SW2); test: Western-blot assay, substrate protein degradation in hPBMCs: IKZF1; type: cell-based; details: 24 hours of compound treatment, 50 nM and 500 nM
# T3 construct: effects of the compounds of the present disclosure on the expression of target proteins in cells; endogenous in cells; host or cells: human PBMCs (hPBMCs)
# WEE1 = biological target: T4, WEE1 (Homo sapiens, UniProt P30291+Q96SW2); test: Western-blot assay, substrate protein degradation in hPBMCs: WEE1; type: cell-based; details: 24 hours of compound treatment, 50 nM and 500 nM
# T4 construct: effects of the compounds of the present disclosure on the expression of target proteins in cells; endogenous in cells; host or cells: human PBMCs (hPBMCs)
# T4 sequence (P30291 whole entry): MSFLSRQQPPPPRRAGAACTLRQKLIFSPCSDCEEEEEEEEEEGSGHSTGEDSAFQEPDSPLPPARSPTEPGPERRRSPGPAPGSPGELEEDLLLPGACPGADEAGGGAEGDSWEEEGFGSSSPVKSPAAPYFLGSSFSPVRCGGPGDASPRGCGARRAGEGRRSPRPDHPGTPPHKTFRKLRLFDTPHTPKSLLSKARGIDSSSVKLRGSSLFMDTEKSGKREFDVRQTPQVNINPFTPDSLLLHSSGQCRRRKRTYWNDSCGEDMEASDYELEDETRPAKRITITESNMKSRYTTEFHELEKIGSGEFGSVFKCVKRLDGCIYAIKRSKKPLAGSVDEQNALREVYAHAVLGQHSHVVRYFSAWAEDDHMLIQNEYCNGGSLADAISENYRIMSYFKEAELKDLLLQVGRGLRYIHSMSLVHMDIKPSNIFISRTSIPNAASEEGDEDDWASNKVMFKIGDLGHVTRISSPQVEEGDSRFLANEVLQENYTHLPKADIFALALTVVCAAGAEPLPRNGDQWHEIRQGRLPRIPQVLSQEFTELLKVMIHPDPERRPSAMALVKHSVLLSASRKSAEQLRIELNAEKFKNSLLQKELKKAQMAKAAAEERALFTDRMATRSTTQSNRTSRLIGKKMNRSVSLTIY
# T4 sequence (Q96SW2 whole entry): as the sequence (Q96SW2 whole entry) above
# T4 sequence (Q16531 whole entry partner): as the sequence (Q16531 whole entry partner) above
# IKZF2 = biological target: T5, IKZF2 (Homo sapiens, UniProt Q96SW2+Q9UKS7); test: Western-blot assay, substrate protein degradation in hPBMCs: IKZF2; type: cell-based; details: 24 hours of compound treatment, 50 nM and 500 nM
# T5 construct: effects of the compounds of the present disclosure on the expression of target proteins in cells; endogenous in cells; host or cells: human PBMCs (hPBMCs)
# T5 sequence (Q9UKS7 whole entry): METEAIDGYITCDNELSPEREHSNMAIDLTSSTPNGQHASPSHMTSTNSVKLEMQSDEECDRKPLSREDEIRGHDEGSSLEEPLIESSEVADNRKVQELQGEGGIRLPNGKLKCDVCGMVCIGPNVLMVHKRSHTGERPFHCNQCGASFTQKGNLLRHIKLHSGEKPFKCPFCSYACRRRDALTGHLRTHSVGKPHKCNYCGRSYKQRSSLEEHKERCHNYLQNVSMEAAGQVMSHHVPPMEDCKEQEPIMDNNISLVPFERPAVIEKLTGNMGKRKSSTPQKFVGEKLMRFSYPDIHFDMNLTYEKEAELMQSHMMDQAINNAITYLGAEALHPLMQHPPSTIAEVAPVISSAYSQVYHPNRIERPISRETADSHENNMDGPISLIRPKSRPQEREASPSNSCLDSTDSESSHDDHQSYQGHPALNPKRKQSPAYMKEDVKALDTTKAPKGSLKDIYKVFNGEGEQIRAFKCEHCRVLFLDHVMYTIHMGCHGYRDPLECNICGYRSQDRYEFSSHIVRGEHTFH
# T5 sequence (Q96SW2 whole entry): as the sequence (Q96SW2 whole entry) above
# T5 sequence (Q16531 whole entry partner): as the sequence (Q16531 whole entry partner) above
# CK1α = biological target: T6, CK1α (Homo sapiens, UniProt P48729+Q96SW2); test: Western-blot assay, substrate protein degradation in hPBMCs: CK1α; type: cell-based; details: 24 hours of compound treatment, 50 nM and 500 nM
# T6 construct: effects of the compounds of the present disclosure on the expression of target proteins in cells; endogenous in cells; host or cells: human PBMCs (hPBMCs)
# T6 sequence (P48729 whole entry): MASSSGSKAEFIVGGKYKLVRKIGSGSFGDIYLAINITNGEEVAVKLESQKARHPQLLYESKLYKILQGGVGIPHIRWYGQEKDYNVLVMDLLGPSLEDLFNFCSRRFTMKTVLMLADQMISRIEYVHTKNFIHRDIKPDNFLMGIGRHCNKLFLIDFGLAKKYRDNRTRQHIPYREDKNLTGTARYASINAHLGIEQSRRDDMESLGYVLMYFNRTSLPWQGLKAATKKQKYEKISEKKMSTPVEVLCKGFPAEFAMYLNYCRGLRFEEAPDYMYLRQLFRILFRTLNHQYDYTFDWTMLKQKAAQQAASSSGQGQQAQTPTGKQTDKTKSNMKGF
# T6 sequence (Q96SW2 whole entry): as the sequence (Q96SW2 whole entry) above
# T6 sequence (Q16531 whole entry partner): as the sequence (Q16531 whole entry partner) above
# GSPT1 = biological target: T7, GSPT1 (Homo sapiens, UniProt P15170+Q96SW2); test: Western-blot assay, substrate protein degradation in hPBMCs: GSPT1; type: cell-based; details: 24 hours of compound treatment, 50 nM and 500 nM
# T7 construct: effects of the compounds of the present disclosure on the expression of target proteins in cells; endogenous in cells; host or cells: human PBMCs (hPBMCs)
# T7 sequence (P15170 whole entry): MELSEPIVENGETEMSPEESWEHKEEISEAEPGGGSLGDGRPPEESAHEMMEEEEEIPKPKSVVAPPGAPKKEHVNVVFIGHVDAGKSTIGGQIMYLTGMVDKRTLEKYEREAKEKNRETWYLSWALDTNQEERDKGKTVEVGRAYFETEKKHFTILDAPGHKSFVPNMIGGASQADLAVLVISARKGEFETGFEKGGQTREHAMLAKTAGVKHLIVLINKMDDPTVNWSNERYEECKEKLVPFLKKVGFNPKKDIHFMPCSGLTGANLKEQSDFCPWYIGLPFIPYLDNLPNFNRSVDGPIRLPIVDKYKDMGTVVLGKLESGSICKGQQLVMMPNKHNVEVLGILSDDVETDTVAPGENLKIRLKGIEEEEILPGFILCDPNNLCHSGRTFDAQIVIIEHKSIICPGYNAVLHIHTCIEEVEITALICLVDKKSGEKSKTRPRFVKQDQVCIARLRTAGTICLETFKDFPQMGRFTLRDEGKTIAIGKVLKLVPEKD
# T7 sequence (Q96SW2 whole entry): as the sequence (Q96SW2 whole entry) above
# T7 sequence (Q16531 whole entry partner): as the sequence (Q16531 whole entry partner) above
Compound,inhibition at 0.5 µM [1],inhibition at 2 µM [1],inhibition at 0.01 µM (H2228),inhibition at 0.5 µM (H2228),inhibition at 0.01 µM (H292),inhibition at 0.5 µM (H292),inhibition at 0.01 µM (MV-4-11),inhibition at 0.5 µM (MV-4-11),inhibition at 0.01 µM (MDA-MB-231),inhibition at 0.5 µM (MDA-MB-231),substrate protein remaining % IKZF3 (IKZF3),substrate protein remaining % IKZF1 (IKZF1),substrate protein remaining % WEE1 (WEE1),substrate protein remaining % IKZF2 (IKZF2),substrate protein remaining % CK1α (CK1α),substrate protein remaining % GSPT1 (GSPT1)
"Cc1nc(N2CCN(Cc3ccc4c(c3)CN(N3CCC(=O)NC3=O)C4=O)CC2)c2c(-c3ccccc3)csc2n1 [GT-08066, 1-(5-((4-(2-methyl-5-phenylthieno[2,3-d]pyrimidin-4-yl)piperazin-1-yl)methyl)-1-oxoisoindolin-2-yl)dihydropyrimidine-2,4(1H,3H)-dione]",20 to 30%,60 to 80%,,,20 to 40%,20 to 40%,18 to 25%,10 to 18%,15 to 18%,15 to 18%,B (80%< substrate protein remaining %≤ 100%),B (80%< substrate protein remaining %≤ 100%),B (80%< substrate protein remaining %≤ 100%),A (0% ≤ substrate protein remaining % ≤ 80%),A (0% ≤ substrate protein remaining % ≤ 80%),B (80%< substrate protein remaining %≤ 100%)
"O=C1CCN(N2Cc3cc(CN4CCN(c5ncnc6sc7c(c56)CCC7)CC4)ccc3C2=O)C(=O)N1 [GT-08079, 1-(5-((4-(6,7-dihydro-5H-cyclopenta[4,5]thieno[2,3-d]pyrimidin-4-yl)piperazin-1-yl)methyl)-1-oxoisoindolin-2-yl)dihydropyrimidine-2,4(1H,3H)-dione]",20 to 30%,53 to 60%,15 to 20%,20 to 25%,20 to 40%,20 to 40%,40 to 60%,40 to 60%,18 to 25%,10 to 15%,B (80%< substrate protein remaining %≤ 100%),B (80%< substrate protein remaining %≤ 100%),A (0% ≤ substrate protein remaining % ≤ 80%),B (80%< substrate protein remaining %≤ 100%),A (0% ≤ substrate protein remaining % ≤ 80%),A (0% ≤ substrate protein remaining % ≤ 80%)

# Second part, led by results:
inhibition at 0.5 µM [1],inhibition at 2 µM [1],Compound,inhibition at 0.01 µM (H2228),inhibition at 0.5 µM (H2228),inhibition at 0.01 µM (H292),inhibition at 0.5 µM (H292),inhibition at 0.01 µM (MV-4-11),inhibition at 0.5 µM (MV-4-11),inhibition at 0.01 µM (MDA-MB-231),inhibition at 0.5 µM (MDA-MB-231),substrate protein remaining % IKZF3 (IKZF3),substrate protein remaining % IKZF1 (IKZF1),substrate protein remaining % WEE1 (WEE1),substrate protein remaining % IKZF2 (IKZF2),substrate protein remaining % CK1α (CK1α),substrate protein remaining % GSPT1 (GSPT1)
20 to 30%,53 to 60%,"O=C1CCN(N2Cc3cc(CN4CC=C(c5ncnc6scc(-c7ccccc7)c56)CC4)ccc3C2=O)C(=O)N1 [GT-08174, 1-(1-oxo-5-((4-(5-phenylthieno[2,3-d]pyrimidin-4-yl)-3,6-dihydropyridin-1(2H)-yl)methyl)isoindolin-2-yl)dihydropyrimidine-2,4(1H,3H)-dione]",15 to 20%,20 to 25%,10 to 15%,20 to 40%,25 to 30%,10 to 18%,18 to 25%,25 to 40%,,,,,,
30 to 40%,60 to 80%,"Cc1nc(C2=CCN(Cc3ccc4c(c3)CN(N3CCC(=O)NC3=O)C4=O)CC2)c2c(-c3ccccc3)csc2n1 [GT-08176, 1-(5-((4-(2-methyl-5-phenylthieno[2,3-d]pyrimidin-4-yl)-3,6-dihydropyridin-1(2H)-yl)methyl)-1-oxoisoindolin-2-yl)dihydropyrimidine-2,4(1H,3H)-dione]",,,15 to 20%,20 to 40%,60 to 80%,30 to 40%,,,,,,,,
20 to 30%,53 to 60%,"Cc1nc(N2CCN(Cc3ccc4c(c3)CN(N3CCC(=O)NC3=O)C4=O)CC2)c2c3c(sc2n1)CCC3 [GT-08080, 1-(5-((4-(2-methyl-6,7-dihydro-5H-cyclopenta[4,5]thieno[2,3-d]pyrimidin-4-yl)piperazin-1-yl)methyl)-1-oxoisoindolin-2-yl)dihydropyrimidine-2,4(1H,3H)-dione]",30 to 40%,20 to 25%,40 to 60%,20 to 40%,,,18 to 25%,15 to 18%,B (80%< substrate protein remaining %≤ 100%),B (80%< substrate protein remaining %≤ 100%),A (0% ≤ substrate protein remaining % ≤ 80%),B (80%< substrate protein remaining %≤ 100%),A (0% ≤ substrate protein remaining % ≤ 80%),A (0% ≤ substrate protein remaining % ≤ 80%)
